Columns and labels:
[1] = tested on: human umbilical vein endothelial cells (HUVEC); test: Uptake of fluorophore-labeled milk exosomes into HUVECs; assay type: cell-based; details: for effect on exosome uptake in HUVEC cells: inhibitors or 150 mmol/L carbohydrate competitors
HUVEC = test: Cell death (MTT viability) assay with puromycin-loaded exosomes; assay type: cell-based, human; details: 1,837 μM puromycin added directly to media, 24 h
Procedure: The possibility that adherence to cells, rather than uptake into cells, accounted for cell fluorescence was dismissed based on the following cell death-based and enhanced green fluorescent protein (eGFP) protocols. Milk exosomes were suspended in BTXpress electroporation buffer (BTX, Holliston, MA; final concentration 100 […]), containing zero (negative control), 56 μM, or 223 μM puromycin in a 4-mm electroporation cuvette. Exosomes were loaded with puromycin or with a mammalian eGFP expression plasmid by electroporation in a Gene Pulser Xcell electroporator (Bio-Rad) using 250 V, 950 μF, and infinite resistance. Extra-exosomal puromycin was removed by ultracentrifugation and washing, and exosomes were resuspended in 300 μl of exosome-depleted cell culture media. In cell death assays, 100 μl of the suspension were added per well in a 96-well cell culture plate (containing ˜200 μl of media) and cells were cultured for 24 h, when viability was assessed using the MTT assay. Positive controls were created by adding puromycin directly to the media without encapsulation in exosomes, thereby producing a concentration of 1,837 μM puromycin. In eGFP assays, cells were cultured in media in which eGFP-loaded milk exosomes were substituted for exosomes in fetal bovine serum. Expression of eGFP was assessed by using confocal microscopy 3 days after initiation of cultures.

[2] = tested on: human colon carcinoma Caco-2 cells; assay type: cell-based
Procedure: Caco-2 cells and IEC-6 cells were seeded at a density of 20,000 and 7000 cells/well, respectively, in 96-well plates, and allowed to adhere for 48 h, when cells were 75% confluent. The exosomes were labeled with the fluorophore, FM 4-64 (Molecular Probes). One microliter of a stock solution of FM 4-64 (5.9 mmol/L) was added to 1 mL of exosome suspension and incubated for 15 min at 37° C., and excess FM 4-64 was removed by ultracentrifugation at 120,000 3 g at 4° C. for 90 min. […] Assays were calibrated by quantifying the fluorescence of a known mass of exosomes labeled with FM 4-64. Exosome uptake was analyzed by measuring the cell fluorescence at 515 (excitation) and 640 nm (emission) using a Biotek FLx800 plate reader (BioTek Instru-ments). Fluorescence readings were corrected for cell autofluorescence by subtracting signals measured in cells incubated with exosome-depleted media. […] In Caco-2 cells, exosome uptake was linear for up to 120 min if transport was measured using nonsaturating substrate concentrations (FIG. 33A): y=0.0012x+0.014 (r2=0.97; P<0.05). In IEC-6 cells exosome uptake was linear for only up to 60 min if transport was measured using nonsaturating substrate concentrations (FIG. 33B): y=0.0033x+0.033 (r2=0.75; P<0.05). […]

Caco-2 cells = assay type: in vitro ADME, human
Procedure: In transwell studies Caco-2 cells were seeded at a density of 9000 cells/well with […] of media in 96-well polycarbonate plates with a pore size of […] (EMD Millipore). The cells were allowed to grow a differentiated monolayer for 21-24 d (33). Caco-2 cell monolayer integrity was formally confirmed using the Lucifer yellow (LY) rejection assay according to the manufacturer's instructions (33). LY fluorescence was measured in the transwell apical and basolateral chambers after 1 h of incubation at 37° C. In parallel experiments, Caco-2 cells were cultured in exosome-depleted media to which milk exosomes were added back to produce a concentration of 275 mg/100 mL exosomal protein in either the upper, apical chamber or the lower, basolateral chamber. Controls were cultured in exosome-depleted media. Aliquots of media were collected from the upper chamber and bottom chamber after 2 h of incubation for analysis of microRNAs. Twenty-five attomoles of internal standard (miSPIKE Synthetic RNA; IDT Technologies) was added to samples before microRNA extraction and subsequent analysis of miR-29b and miR-200c in transwell chambers by quantitative real-time PCR and microRNA-specific primers; miSpike was also used for PCR calibration. Values were corrected for the internal standard to normalize for extraction efficiency.

[3] = tested on: human small intestinal cells (FHs cells); test: Uptake of milk exosomes into FH cells (protease, glycosidase, lectin, sonication); assay type: cell-based
[4] = tested on: human macrophage U937 cells; test: Uptake of milk exosomes into U937 cells; assay type: cell-based; details: exosomes treated with the labelled agent
[5] = FH cells treated with the labelled agent
[6] = exosomes treated with the labelled agent

| Molecule | effect on exosome uptake in HUVEC cells [1] | effect on exosome uptake in FH cells [3, 5] | effect on exosome uptake in FH cells [3, 6] | further results |
| --- | --- | --- | --- | --- |
| C[C@H]1CCC/C=C/[C@@H]2C[C@H](O)C[C@H]2[C@H](O)/C=C/C(=O)O1 [BFA, brefeldin A] | decrease in exosome uptake |  |  |  |
| O=C[C@H](O)[C@@H](O)[C@@H](O)[C@H](O)CO [D-galactose] | significant decrease in exosome uptake |  |  |  |
| C=C1[C@@H](C)[C@H]2[C@H](Cc3ccccc3)NC(=O)[C@]23[C@H](OC(C)=O)/C=C/[C@@](C)(O)C(=O)[C@@H](C)C/C=C/[C@H]3[C@@H]1O [cytochalasin D] | decrease in exosome uptake |  |  | decrease of exosome transport compared with controls ([1]; HUVEC, exosomes treated with proteinase K, or transport in presence of the labelled agent): 50%; exosome uptake ([1]; cells treated with 5 μg/ml cytochalasin D): 63.5±21.3 % of controls; exosome uptake ([1]; cells treated with 10 μg/ml cytochalasin D): 40.8±22.0 % of controls |
| COc1ccc(C[C@H](N)C(=O)N[C@H]2[C@@H](O)[C@H](n3cnc4c(N(C)C)ncnc43)O[C@@H]2CO)cc1 [puromycin] |  |  |  | viability (HUVEC): 37 % of puromycin-free controls |
| Glu-C: Serine protease cleaving at glutamic acid and aspartic acid |  |  |  | effect on exosome uptake in Caco-2 cells ([2]; Caco-2): significant decrease in exosome transport; transport rates (Vmax) ([2]; exosomes treated with the labelled protease, intestinal transport): 19±0.3 arbitrary units |
| Lucifer yellow |  |  |  | rejection rate (Caco-2 cells): 99.8% |
| PHA-E: Lectin binding terminal galactose, N-acetylglucosamine and mannose residues of complex glycans |  | decreases the uptake | decreases the uptake |  |
| SBA: Lectin binding terminal N-acetylgalactosamine and galactopyranosyl residues |  | decreases the uptake | decreases the uptake |  |
| β-galactosidase |  | decrease in exosome uptake | decrease in exosome uptake | effect on exosome uptake in U937 cells [4]: decrease in exosome uptake |
